Reference: patent US9103833B2, “Use of the GTPase Rab27B to diagnose and treat poor prognosis estrogen-receptor-positive breast cancer” (Universiteit Gent, priority 2009, dated 2015)

Tests used:
MCF-7 cells = test: type I collagen invasion assay with recombinant HSP90 proteins; assay type: cell-based, human; details: 24 hours
Description: (§1) For the type I collagen invasion assay, the following precooled components were gently combined and defined as type I collagen solution: four volumes of type I collagen (stock is 3.49 mg/mL), five volumes of calcium- and magnesium-free Hank's balanced salt solution, one volume of MEM (10×), one volume of 0.25 M NaHCO3, 2.65 volumes of culture medium and 0.3 volumes of 1 M NaOH. For each test-condition, 1.25 mL of type I collagen solution was added to one well of 6-well plate, homogeneously spread and gelified on a flat surface in a humidified atmosphere of 10% CO2 in air at 37° C. for at least one hour. […]
(§2) Cell morphology was studied and invasion was scored after 24 hours (De Wever et al., (44)). […] It was calculated as (perimeter)^2÷(4π area), which describes the deviation of an object from a geometric circle. […] The number of invasive and non-invasive cells was counted in ten randomly selected microscopic fields with a 20× objective and 10× eye piece by two blinded observers using an inverted phase contrast microscope (DMI 3000B, Leica, Wetzlar, Germany). The invasion index was calculated as the ratio of the number of cells that invaded the gel divided by the total number of cells counted in each field. […]

MCF-7 GFP cells = test: cell proliferation assay with recombinant HSP90α; assay type: cell-based, human; details: 10 μg/mL added to culture medium; P<0.001
Description: To examine whether Rab27B affects cell proliferation in a GTP-, geranylgeranyl-, and HSP90α-dependent manner, three sets of experiments were conducted: 1) proliferation rates of MCF-7 cells stably expressing GFP, GFP-Rab27B, GFP-Rab27B Q78L, GFP-Rab27B T23N, and GFP-Rab27B GER were compared; 2) proliferation rates of MCF-7 GFP-Rab27B cells transiently targeted with control or Rab27B siRNAs were studied; and 3) proliferation rates of MCF-7 GFP cells, treated with recombinant HSP90α, and MCF-7 GFP-Rab27B cells, challenged with control IgG or anti-HSP90α neutralizing antibody, were evaluated. To obtain a growth curve under each condition, triplicate wells of seeded cells were each counted five times. Two investigators independently counted the total number of cells in each well every 2 days for a total of 8 days with the use of a manual hemocytometer.

[1] = tested on: cyclin A in MCF-7 GFP cells; test: cyclin A expression with recombinant HSP90α, Western blot; assay type: cell-based, human; details: 10 μg/mL
Description: For Western blot analysis MCF-7 cells (1-10×10^6) were harvested in Laemmli lysis buffer (0.125 M Tris-HCl [pH=6.8], 10% glycerol, 2.3% SDS). Cell lysates (25 μg) and CM (20 μL) were suspended in 10 μL reducing sample buffer (1M Tris-HCl [pH=6.8], 30% glycerol, 6% SDS, 3% β-mercaptoethanol, 0.005% bromophenol blue) and boiled for 5 minutes at 95° C. Samples were run on NuPage 4-20% Bis-Tris gradient gels (Invitrogen), transferred to PVDF membranes, blocked in 5% non-fat milk in PBS with 0.5% Tween-20, and immunostained. Scanning densitometry was carried out with the Quantity One Program (Bio-Rad).

MCF-7 GFP-Rab27B cells = test: type I collagen invasion assay; assay type: cell-based; details: Homo sapiens, MCF7, 24 hours, MCF-7 GFP-Rab27B cells on type I collagen, P<0.001
Description: as §1, §2

recombinant HSP90α: HSP90α recombinant protein obtained from Stressgen
type I collagen invasion (MCF-7 cells; 1-10 μg/mL recombinant protein, P=0.04 at 5 μg/mL, P=0.003 at 10 μg/mL): dose-dependent increase | proliferation of MCF-7 cells (MCF-7 GFP cells): increased proliferation | cyclin A expression [1]: increased cyclin A expression

recombinant HSP90β: HSP90β recombinant protein obtained from Stressgen
type I collagen invasion (MCF-7 cells; 10 μg/mL recombinant protein): no effect

COC1=C2C[C@@H](C)C[C@H](OC)[C@H](O)[C@@H](C)/C=C(\C)[C@H](OC(N)=O)[C@@H](OC)/C=C\C=C(/C)C(=O)NC(=CC1=O)C2=O [geldanamycin]
inhibition at 1 µM (MCF-7 GFP-Rab27B cells): 85 to 100%
